# Source: US20050124626A1, “Novel compounds” (priority 2002, published 2005)
# Structures can show the parent of a compound that is named as a salt.
# Molecular target: T1, human cloned 5-HT6 receptors (Homo sapiens, UniProt P50406)
# T1 construct: expressed in transfected cells
# Assay: 5-HT6 receptor affinity following the procedures outlined in WO98/27081
# Type: binding
# Conditions: read-out: pKi values at human cloned 5-HT6 receptors (converted)
# Description: Compounds can be tested following the procedures outlined in WO98/27081.
# T1 sequence (P50406 whole entry): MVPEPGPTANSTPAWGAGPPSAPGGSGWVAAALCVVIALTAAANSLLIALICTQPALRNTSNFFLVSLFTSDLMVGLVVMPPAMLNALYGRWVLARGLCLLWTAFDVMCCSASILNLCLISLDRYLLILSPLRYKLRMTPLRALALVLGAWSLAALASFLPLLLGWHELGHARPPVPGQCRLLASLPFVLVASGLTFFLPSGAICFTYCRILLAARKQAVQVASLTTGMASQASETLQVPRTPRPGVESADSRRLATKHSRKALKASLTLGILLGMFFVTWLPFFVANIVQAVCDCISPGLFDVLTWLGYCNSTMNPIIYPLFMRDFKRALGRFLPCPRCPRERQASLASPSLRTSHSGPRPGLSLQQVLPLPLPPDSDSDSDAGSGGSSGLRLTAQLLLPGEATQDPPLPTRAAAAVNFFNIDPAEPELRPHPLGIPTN
row,Compound,Ki
1,"O=S(=O)(c1ccccc1)c1c[nH]c2c(N3CCNCC3)nccc12 [Example E6, 7-piperazin-1-yl-3-phenylsulfonyl-1H-pyrrolo[2,3-c]pyridine hydrochloride]",< 0.0316 µM
2,"Cc1cc(N2CCNCC2)c2ccc(S(=O)(=O)c3ccccc3)cc2n1 [Example E9, 2-Methyl-4-piperazin-1-yl-7-phenylsulfonylquinoline hydrochloride]",< 0.01 µM
3,"O=S(=O)(c1cccc(F)c1)c1c[nH]c2c(N3CCNCC3)nccc12 [Example E8, 3-(3-Fluorophenyl)sulfonyl-7-piperazin-1-yl-1H-pyrrolo[2,3-c]pyridine hydrochloride]",< 0.0316 µM
4,"O=S(=O)(c1ccccc1)c1ccnc2c(N3CCNCC3)cccc12 [Example E10, 4-Phenylsulfonyl-8-piperazin-1-yl quinoline]",< 0.01 µM
5,"O=S(=O)(c1ccccc1F)c1c[nH]c2c(N3CCNCC3)nccc12 [Example E7, 3-(2-Fluorophenyl)sulfonyl-7-piperazin-1-yl-1H-pyrrolo[2,3-c]pyridine hydrochloride]",< 0.0316 µM

# Continued, values first:
row,Ki,Compound
1,< 0.01 µM,Cc1cc(S(=O)(=O)c2cccc(F)c2)c2cccc(N3CCNCC3)c2n1 [Example E15]
2,< 0.01 µM,"Cc1cc(S(=O)(=O)c2ccccc2)c2cccc(N3CCNCC3)c2n1 [Example E13, 2-Methyl-4-phenylsulfonyl-8-piperazin-1-ylquinoline hydrochloride]"
3,< 0.01 µM,Cc1cc(S(=O)(=O)c2cccc(Cl)c2)c2cccc(N3CCNCC3)c2n1 [Example E16]
4,< 0.01 µM,Cc1cc(S(=O)(=O)c2ccccc2F)c2cccc(N3CCNCC3)c2n1 [Example E14]
5,< 0.01 µM,"O=S(=O)(c1ccccc1)c1ccnc2c(N3CCNCC3)cccc12 [Example E11, 4-Phenylsulfonyl-8-piperazin-1-yl-quinoline hydrochloride]"
6,< 0.01 µM,"Cc1cc(S(=O)(=O)c2ccccc2)c2cccc(N3CCNCC3)c2n1 [Example E12, 2-Methyl-4-phenylsulfonyl-8-piperazin-1-yl-quinoline]"
